From publication PMC5779714, “Metallochaperone UreG serves as a new target for design of urease inhibitor: A novel strategy for development of antimicrobials” (PLoS Biology, 2018)
Where two headings read alike, the source gives them in different places.

Experiments:
UreG = UreG (Helicobacter pylori, UniProt Q09066); test: biochemical; type: biochemical, H. pylori; settings: for inhibition at 20 µM: read-out: inhibition of the GTPase activity of UreG
Description: A Malachite Green Phosphate Assay Kit (Abcam) was utilized to quantify the hydrolysis of GTP by UreG under various conditions. […] GTPase activity of UreG was triggered through the addition of 10 mM KHCO3, after which the reaction was incubated at 37°C for 30 min; then, the free phosphate from hydrolysis of GTP was determined. […] To eliminate the potential effect of small compounds on malachite green assay, the assay included a subtraction of the absorbance of reaction with the same amounts of compounds but without UreG enzyme for each reading.

UreGΔNKXD = UreGΔNKXD (Helicobacter pylori, UniProt Q09066, D148A/K146A/N145A); test: Fluorescence-quenching titration of mutant UreGΔNKXD; type: binding, H. pylori
Chain of UreGΔNKXD (Q09066 whole entry N145A/K146A/D148A): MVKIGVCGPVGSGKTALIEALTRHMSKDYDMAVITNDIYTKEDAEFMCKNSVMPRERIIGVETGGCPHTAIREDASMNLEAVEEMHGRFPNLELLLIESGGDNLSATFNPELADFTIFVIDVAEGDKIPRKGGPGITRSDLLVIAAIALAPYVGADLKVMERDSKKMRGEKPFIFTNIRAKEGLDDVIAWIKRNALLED
Description: To further confirm the interface between UreG and small molecules generated from computational models, we then constructed an UreG mutant (UreGΔNKXD) by replacing selected residues (N145, K146, D148) with Ala to disrupt G4 motif, which abolished GTP binding of UreG (S17 Fig).
Using the relation between the emission intensity at 310 nm and molecule-UreG–bound species, as well as one site-binding model, the Kd values were calculated by a logistic regression model referring to a previous report. […] All fluorescence readings were corrected for the dilution effect.

H. pylori urease = H. pylori urease (Helicobacter pylori, UniProt P14916+P69996); test: cell-based; type: cell-based; settings: read-out: inhibition of urease activity in H. pylori cells
Chain of H. pylori urease (P14916 whole entry, looked up): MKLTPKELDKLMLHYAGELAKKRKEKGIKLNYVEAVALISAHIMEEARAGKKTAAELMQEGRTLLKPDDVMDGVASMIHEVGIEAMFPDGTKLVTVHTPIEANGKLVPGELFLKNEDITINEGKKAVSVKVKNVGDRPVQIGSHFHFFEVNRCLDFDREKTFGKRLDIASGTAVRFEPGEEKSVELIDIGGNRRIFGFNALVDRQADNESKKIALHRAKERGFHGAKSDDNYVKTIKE
Chain of H. pylori urease (P69996 whole entry, looked up): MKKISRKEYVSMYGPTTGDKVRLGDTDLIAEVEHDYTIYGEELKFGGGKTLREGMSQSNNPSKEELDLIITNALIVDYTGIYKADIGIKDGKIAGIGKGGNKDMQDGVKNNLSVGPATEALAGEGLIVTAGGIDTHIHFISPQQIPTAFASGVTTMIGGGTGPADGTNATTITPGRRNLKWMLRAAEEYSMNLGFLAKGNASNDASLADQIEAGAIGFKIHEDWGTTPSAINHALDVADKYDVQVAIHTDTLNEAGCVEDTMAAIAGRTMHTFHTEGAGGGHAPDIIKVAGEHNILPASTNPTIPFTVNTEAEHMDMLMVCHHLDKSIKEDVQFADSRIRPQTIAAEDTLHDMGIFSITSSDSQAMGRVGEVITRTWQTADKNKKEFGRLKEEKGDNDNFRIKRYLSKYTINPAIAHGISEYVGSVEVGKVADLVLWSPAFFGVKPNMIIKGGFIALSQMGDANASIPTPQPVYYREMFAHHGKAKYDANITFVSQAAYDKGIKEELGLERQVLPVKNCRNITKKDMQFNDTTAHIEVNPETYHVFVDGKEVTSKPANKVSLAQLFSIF

Chain of UreG (Q09066 whole entry): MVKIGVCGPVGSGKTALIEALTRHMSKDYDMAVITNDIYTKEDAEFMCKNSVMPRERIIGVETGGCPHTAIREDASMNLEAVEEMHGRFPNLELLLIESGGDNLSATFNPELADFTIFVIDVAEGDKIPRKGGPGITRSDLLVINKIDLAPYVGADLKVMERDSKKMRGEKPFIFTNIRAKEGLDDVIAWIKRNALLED

Row | Structure (SMILES) | IC50 (UreG) [µM] | Normalized GTPase activity(%) (UreG; log[μM] 0) | Normalized GTPase activity(%) (UreG; log[μM] 0.60206) | Normalized GTPase activity(%) (UreG; log[μM] 0.90309) | Normalized GTPase activity(%) (UreG; log[μM] 1.20412) | Normalized GTPase activity(%) (UreG; log[μM] 1.50515) | Normalized GTPase activity(%) (UreG; log[μM] 1.79588) | Normalized GTPase activity(%) (UreG; log[μM] 2.09691) | Normalized GTPase activity(%) (UreG; log[μM] 2.39794) | inhibition at 20 µM (UreG) [%] | Kd (UreGΔNKXD) [µM] | fluorescence intensity (a.u.) (UreGΔNKXD; log(ligand[μM]) 0) | fluorescence intensity (a.u.) (UreGΔNKXD; log(ligand[μM]) 0.30103) | fluorescence intensity (a.u.) (UreGΔNKXD; log(ligand[μM]) 0.60206) | fluorescence intensity (a.u.) (UreGΔNKXD; log(ligand[μM]) 0.90309) | fluorescence intensity (a.u.) (UreGΔNKXD; log(ligand[μM]) 1.20412) | fluorescence intensity (a.u.) (UreGΔNKXD; log(ligand[μM]) 1.50515) | fluorescence intensity (a.u.) (UreGΔNKXD; log(ligand[μM]) 1.80618) | fluorescence intensity (a.u.) (UreGΔNKXD; log(ligand[μM]) 2.10721) | fluorescence intensity (a.u.) (UreGΔNKXD; log(ligand[μM]) -0.30103) | also measured
1 | Cc1cccc(N2CCN(C(=O)c3cc(S(=O)(=O)N(C)C)ccc3N3CCCC3)CC2)c1C [cmpd4] | 16.8 ± 6.5 | 97.2 | 90.0 | 69.0 | 56.9 | 41.1 | 28.1 | 11.6 | 16.3 | 37 to 72 | 34.7 | 2206 | 2092 | 1907 | 1710.67 | 1454.33 | 989.433 | 540.3 | 237.1 | 2278 | Normalized GTPase activity(%) (UreG; purified Ni-UreG (5 µM), 20 µM small compound): 43.9%; fluorescence intensity (a.u.) (UreGΔNKXD; log(ligand[μM]) -1.30103): 2063.67 a.u.; inhibition at 20 µM (H. pylori urease): ~60%
2 | O=C(Cn1c2ccccc2c(=O)c2ccccc21)N/N=C/c1cc([N+](=O)[O-])ccc1N1CCCCCC1 [cmpd8] | 13.2 ± 7.6 | 100.3 | 93.8 | 81.8 | 41.6 | 32.9 | 13.8 | 2.1 | 16.7 | 37 to 72 | 33.4 | 2422.67 | 2357.67 | 2253.67 | 2017.33 | 1677.67 | 1189.33 | 685.167 | 316.133 | 2519 | fluorescence intensity (a.u.) (UreGΔNKXD; log(ligand[μM]) -1.30103): 2677 a.u.; inhibition at 20 µM (H. pylori urease; 20 μM compound in cultured medium): ~90%
